Laboratory results reported in the NIST ThermoML archive (doi:10.1016/j.jct.2016.11.009).
± gives the expanded uncertainty stated by the source.

Assay: xn = mol fraction of the nth substance listed
Settings: Fluid (supercritical or subcritical phases), Buoyancy - hydrostatic balance with magnetic suspension - one sinker

C [methane] + O=C=O
Settings	mass density [kg/m3]
303.29 K, 11998 kPa, x2 = 0.8988	626.792 ± 6.3
303.29 K, 15006 kPa, x2 = 0.3997	237.974 ± 1.7
305.01 K, 18003 kPa, x2 = 0.8988	732.397 ± 4.9
305.04 K, 7997 kPa, x2 = 0.8988	244.829 ± 2.6
305.06 K, 9978 kPa, x2 = 0.8988	474.418 ± 7.9
305.08 K, 11001 kPa, x2 = 0.3997	159.477 ± 1
305.09 K, 12002 kPa, x2 = 0.0998	107.694 ± 0.75
305.1 K, 4001 kPa, x2 = 0.3997	47.504 ± 0.26
305.1 K, 17995 kPa, x2 = 0.6015	408.107 ± 3.1
305.11 K, 3997 kPa, x2 = 0.7985	72.035 ± 0.34
305.11 K, 5997 kPa, x2 = 0.0998	49.434 ± 0.32
305.11 K, 6003 kPa, x2 = 0.7985	122.855 ± 0.66
305.12 K, 3998 kPa, x2 = 0.8988	79.325 ± 0.38
305.12 K, 5006 kPa, x2 = 0.7985	95.778 ± 0.47
305.13 K, 6992 kPa, x2 = 0.0998	58.605 ± 0.38
305.13 K, 6994 kPa, x2 = 0.8988	182.804 ± 1.3
305.13 K, 9002 kPa, x2 = 0.0998	77.799 ± 0.52
305.13 K, 11012 kPa, x2 = 0.6015	223.4 ± 1.7
305.13 K, 14994 kPa, x2 = 0.3997	233.75 ± 1.6
305.14 K, 5001 kPa, x2 = 0.6015	76.729 ± 0.38
305.14 K, 14994 kPa, x2 = 0.7985	546.063 ± 4.5
305.15 K, 3979 kPa, x2 = 0.6015	58.587 ± 0.29
305.15 K, 6000 kPa, x2 = 0.6015	96.024 ± 0.5
305.15 K, 7998 kPa, x2 = 0.0998	68.122 ± 0.45
305.15 K, 9004 kPa, x2 = 0.6015	165.984 ± 1.1
305.15 K, 11001 kPa, x2 = 0.2017	116.026 ± 0.77
305.15 K, 11998 kPa, x2 = 0.2017	128.322 ± 0.86
305.15 K, 12006 kPa, x2 = 0.3997	178.104 ± 1.2
305.16 K, 3003 kPa, x2 = 0.0998	23.496 ± 0.17
305.16 K, 4003 kPa, x2 = 0.0998	31.879 ± 0.22
305.16 K, 8002 kPa, x2 = 0.2017	80.173 ± 0.49
305.16 K, 8998 kPa, x2 = 0.3997	123.489 ± 0.72
305.16 K, 10996 kPa, x2 = 0.8988	555.932 ± 7.1
305.16 K, 14996 kPa, x2 = 0.0998	137.438 ± 0.97
305.16 K, 15000 kPa, x2 = 0.6015	340.932 ± 2.8
305.16 K, 18000 kPa, x2 = 0.2017	199.543 ± 1.4
305.17 K, 6999 kPa, x2 = 0.6015	117.142 ± 0.65
305.17 K, 7000 kPa, x2 = 0.7985	154.794 ± 0.95
305.17 K, 10003 kPa, x2 = 0.0998	87.669 ± 0.6
305.17 K, 10999 kPa, x2 = 0.0998	97.609 ± 0.67
305.17 K, 18001 kPa, x2 = 0.0998	165.624 ± 1.2
305.18 K, 4001 kPa, x2 = 0.2017	37.03 ± 0.22
305.18 K, 4996 kPa, x2 = 0.3997	60.999 ± 0.32
305.18 K, 5001 kPa, x2 = 0.2017	47.235 ± 0.28
305.18 K, 6000 kPa, x2 = 0.3997	75.426 ± 0.41
305.18 K, 7002 kPa, x2 = 0.3997	90.651 ± 0.5
305.18 K, 8000 kPa, x2 = 0.6015	140.462 ± 0.83
305.18 K, 9997 kPa, x2 = 0.3997	141.056 ± 0.86
305.18 K, 11999 kPa, x2 = 0.7985	429.815 ± 4.5
305.18 K, 14999 kPa, x2 = 0.2017	165.099 ± 1.2
305.18 K, 18002 kPa, x2 = 0.7985	608.035 ± 4.3
305.19 K, 7000 kPa, x2 = 0.2017	68.786 ± 0.42
305.19 K, 9001 kPa, x2 = 0.2017	91.841 ± 0.57
305.19 K, 9001 kPa, x2 = 0.7985	243.07 ± 2.1
305.19 K, 12005 kPa, x2 = 0.6015	253.791 ± 2.1
305.2 K, 5004 kPa, x2 = 0.8988	106.835 ± 0.57
305.2 K, 10000 kPa, x2 = 0.2017	103.792 ± 0.67
305.2 K, 11001 kPa, x2 = 0.7985	369.844 ± 4.1
305.2 K, 11998 kPa, x2 = 0.8988	604.408 ± 6.4
305.21 K, 8996 kPa, x2 = 0.8988	345.688 ± 5.7
305.21 K, 15000 kPa, x2 = 0.8988	683.999 ± 5.4
305.22 K, 6000 kPa, x2 = 0.2017	57.81 ± 0.35
305.22 K, 8006 kPa, x2 = 0.3997	106.718 ± 0.61
305.22 K, 10006 kPa, x2 = 0.6015	193.541 ± 1.4
305.23 K, 5002 kPa, x2 = 0.0998	40.525 ± 0.27
305.23 K, 6002 kPa, x2 = 0.8988	139.912 ± 0.94
305.23 K, 10000 kPa, x2 = 0.7985	303.258 ± 3.2
305.24 K, 8000 kPa, x2 = 0.7985	193.79 ± 1.4
305.24 K, 17994 kPa, x2 = 0.3997	283.653 ± 2
308.05 K, 7997 kPa, x2 = 0.8988	229.008 ± 2.1
308.06 K, 6995 kPa, x2 = 0.8988	175.453 ± 1.2
308.08 K, 10996 kPa, x2 = 0.3997	155.394 ± 0.76
308.09 K, 8982 kPa, x2 = 0.8988	306.981 ± 4.1
308.11 K, 7002 kPa, x2 = 0.6015	114.28 ± 0.63
308.11 K, 7996 kPa, x2 = 0.2017	78.731 ± 0.48
308.11 K, 18002 kPa, x2 = 0.8988	711.774 ± 5.2
308.12 K, 8003 kPa, x2 = 0.6015	136.504 ± 0.8
308.12 K, 11997 kPa, x2 = 0.7985	401.005 ± 4.1
308.12 K, 18001 kPa, x2 = 0.2017	195.388 ± 1.4
308.12 K, 18004 kPa, x2 = 0.0998	162.496 ± 1.2
308.13 K, 8003 kPa, x2 = 0.3997	104.538 ± 0.58
308.13 K, 9004 kPa, x2 = 0.2017	90.207 ± 0.57
308.13 K, 10002 kPa, x2 = 0.2017	101.87 ± 0.67
308.13 K, 11000 kPa, x2 = 0.0998	95.867 ± 0.64
308.13 K, 11001 kPa, x2 = 0.6015	214.588 ± 1.6
308.13 K, 15001 kPa, x2 = 0.7985	523.511 ± 4.4
308.13 K, 15007 kPa, x2 = 0.6015	328.628 ± 2.6
308.14 K, 5002 kPa, x2 = 0.2017	46.531 ± 0.28
308.14 K, 5997 kPa, x2 = 0.6015	93.812 ± 0.49
308.14 K, 6001 kPa, x2 = 0.3997	74.193 ± 0.42
308.14 K, 8998 kPa, x2 = 0.6015	160.546 ± 1
308.14 K, 11000 kPa, x2 = 0.2017	113.723 ± 0.73
308.14 K, 11000 kPa, x2 = 0.7985	342.357 ± 2.9
308.14 K, 12002 kPa, x2 = 0.6015	243.454 ± 1.9
308.14 K, 14996 kPa, x2 = 0.3997	227.135 ± 1.6
308.15 K, 3000 kPa, x2 = 0.0998	23.193 ± 0.17
308.15 K, 6999 kPa, x2 = 0.0998	57.796 ± 0.38
308.15 K, 8996 kPa, x2 = 0.3997	120.739 ± 0.7
308.15 K, 14997 kPa, x2 = 0.0998	134.77 ± 0.95
308.16 K, 4002 kPa, x2 = 0.2017	36.486 ± 0.22
308.16 K, 4004 kPa, x2 = 0.6015	57.94 ± 0.28
308.16 K, 4006 kPa, x2 = 0.7985	70.911 ± 0.33
308.16 K, 5006 kPa, x2 = 0.3997	60.225 ± 0.32
308.16 K, 9001 kPa, x2 = 0.7985	229.843 ± 1.8
308.16 K, 9993 kPa, x2 = 0.8988	417.764 ± 6.8
308.16 K, 10002 kPa, x2 = 0.6015	186.699 ± 1.3
308.16 K, 11997 kPa, x2 = 0.0998	105.588 ± 0.71
308.16 K, 15001 kPa, x2 = 0.2017	161.57 ± 1.1
308.16 K, 17997 kPa, x2 = 0.3997	276.178 ± 1.9
308.17 K, 3998 kPa, x2 = 0.0998	31.42 ± 0.21
308.17 K, 5006 kPa, x2 = 0.7985	93.74 ± 0.44
308.17 K, 9004 kPa, x2 = 0.0998	76.501 ± 0.51
308.17 K, 9994 kPa, x2 = 0.3997	137.721 ± 0.83
308.17 K, 18002 kPa, x2 = 0.7985	590.479 ± 4.3
308.18 K, 6001 kPa, x2 = 0.2017	56.895 ± 0.34
308.18 K, 6999 kPa, x2 = 0.2017	67.631 ± 0.41
308.18 K, 8000 kPa, x2 = 0.7985	185.875 ± 1.2
308.18 K, 9999 kPa, x2 = 0.0998	86.118 ± 0.57
308.19 K, 6002 kPa, x2 = 0.0998	48.761 ± 0.33
308.19 K, 6002 kPa, x2 = 0.7985	119.651 ± 0.64
308.19 K, 18000 kPa, x2 = 0.6015	395.269 ± 2.9
308.2 K, 11998 kPa, x2 = 0.2017	125.636 ± 0.84
308.21 K, 5001 kPa, x2 = 0.0998	39.985 ± 0.27
308.21 K, 7002 kPa, x2 = 0.7985	149.932 ± 0.88
308.22 K, 5002 kPa, x2 = 0.8988	104.568 ± 0.51
308.22 K, 5006 kPa, x2 = 0.6015	75.217 ± 0.37
308.22 K, 7001 kPa, x2 = 0.3997	88.937 ± 0.52
308.22 K, 10003 kPa, x2 = 0.7985	282.745 ± 2.7
308.23 K, 4004 kPa, x2 = 0.8988	78.335 ± 0.35
308.23 K, 5998 kPa, x2 = 0.8988	135.871 ± 0.8
308.23 K, 12000 kPa, x2 = 0.3997	173.174 ± 1.1
308.24 K, 8000 kPa, x2 = 0.0998	67.015 ± 0.45
308.24 K, 11004 kPa, x2 = 0.8988	513.225 ± 6.9
308.26 K, 4003 kPa, x2 = 0.3997	46.849 ± 0.25
308.26 K, 14998 kPa, x2 = 0.8988	660.797 ± 5.4
308.34 K, 11928 kPa, x2 = 0.8988	563.033 ± 6.3
